Laboratory results as given in US12534457B2, “Heteroaryl derivative compounds, and uses thereof” (Voronoi Inc., priority 2021, dated 2026).

Each molecule was assayed on Ba/F3 cells expressing EGFR Del19/C797S (EGFR DC) (assay: Proliferation inhibitory activity, Ba/F3 cells expressing EGFR Del19/C797S (CellTiter-Glo)). Details: Mus musculus, BaF3, 72 hours of compound treatment.
Format: cell-based
How it was run: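 Viability after 72 h of compound exposure was measured by luminescence (CellTiter-Glo) in Ba/F3 lines transduced with mutant EGFR. Final concentrations spanned 0.2 nM–5 μM over 12 threefold steps. Growth relative to untreated control gave GI50 values; each test was run three times.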

| GI50 | SMILES |
| --- | --- |
| < 50 nM | COc1cc(N2CCC(N3CCN(C4CCC4)CC3)CC2)ccc1Nc1cc(N2OCC[C@@H]2c2cccc(F)c2F)ncn1 [Example 208, (R)—N-(4-(4-(4-cyclobutylpiperazin-1-yl)piperidin-1-yl)-2-methoxyphenyl)-6-(3-(2,3-difluorophenyl)isoxazolidin-2-yl)pyrimidin-4-amine] |
| < 50 nM | Cn1cc(-c2cc(Nc3cc(N4OCC[C@@H]4c4ccccc4)ncn3)c(OCC(F)(F)F)cc2N2CCOCC2)cn1 [Example 167, (R)—N-(5-(1-methyl-1H-pyrazol-4-yl)-4-morpholino-2-(2,2,2-trifluoroethoxy)phenyl)-6-(3-phenylisoxazolidin-2-yl)pyrimidin-4-amine] |
| < 50 nM | CN1CCC(c2ccc(Nc3cc(N4OCC[C@@H]4c4cc(F)cc(F)c4)ncn3)c3c2CCO3)CC1 [Example 155, (R)-6-(3-(3,5-difluorophenyl)isoxazolidin-2-yl)-N-(4-(1-methylpiperidin-4-yl)-2,3-dihydrobenzofuran-7-yl)pyrimidin-4-amine] |
| < 50 nM | C=Cc1cc(Nc2cc(N3OCC[C@@H]3c3cccc(F)c3F)ncn2)c(OC)cc1N1CCN(C)CC1 [Example 199, (R)-6-(3-(2,3-difluorophenyl)isoxazolidin-2-yl)-N-(2-methoxy-4-(4-methylpiperazin-1-yl)-5-vinylphenyl)pyrimidin-4-amine] |
| < 50 nM | C#Cc1cc(Nc2cc(N3OCC[C@@H]3c3cccc(F)c3F)ncn2)c(OC)cc1N1CCN(C)CC1 [Example 200, (R)-6-(3-(2,3-difluorophenyl)isoxazolidin-2-yl)-N-(5-ethynyl-2-methoxy-4-(4-methylpiperazine-1-yl)phenyl)pyrimidin-4-amine] |
| < 50 nM | CCC(=O)Nc1cc(Nc2cc(N3OCC[C@@H]3c3cccs3)ncn2)c(OC)cc1N1CCC(N2CCN(C3CC3)CC2)CC1 [Example 163, (R)—N-(2-(4-(4-cyclopropylpiperazin-1-yl)piperidin-1-yl)-4-methoxy-5-((6-(3-(thiophene-2-yl)isoxazolidin-2-yl)pyrimidin-4-yl)amino)phenyl)propionamide] |
| < 50 nM | COc1cc(Nc2cc(N3OCC[C@@H]3c3ccccc3)ncn2)ccc1N1CCC(N2CCN(CCO)CC2)CC1 [Example 121, (R)-2-(4-(1-(2-methoxy-4-((6-(3-phenylisoxazolidin-2-yl)pyrimidin-4-yl)amino)phenyl)piperidin-4-yl)piperazin-1-yl)ethan-1-ol] |
| 50 to 500 nM | COc1cc2c(cc1Nc1cc(N3OCC[C@@H]3c3cccc(F)c3F)ncn1)C(=O)N(C)C2 [Example 193, (R)-6-((6-(3-(2,3-difluorophenyl)isoxazolidin-2-yl)pyrimidin-4-yl)amino)-5-methoxy-2-methylisoindolin-1-one] |
| < 50 nM | CCN1C[C@H]2C[C@@H]1CN2C1CCN(c2ccc(Nc3cc(N4OCC[C@@H]4c4ccccc4)ncn3)c(OC)c2)CC1 [Example 116, N-(4-(4-((1R,4R)-5-ethyl-2,5-diazabicyclo[2.2.1]heptan-2-yl)piperidin-1-yl)-2-methoxyphenyl)-6-((R)-3-phenylisoxazolidin-2-yl)pyrimidin-4-amine] |
| 50 to 500 nM | COc1cc(N2CCC(N3CCN(C)CC3)CC2)ccc1Nc1cc(N2Oc3ccccc3C2c2ccccc2)ncn1 (stereo not shown) [Example 230, N-(2-methoxy-4-(4-(4-methylpiperazin-1-yl)piperidin-1-yl)phenyl)-6-(3-phenylbenzo[d]isoxazol-2 (3H)-yl)pyrimidin-4-amine] |

The next lines start with the molecule.

| SMILES | GI50 |
| --- | --- |
| COc1cc(N2CCC(N3CCN(C)CC3)CC2)ccc1Nc1cc(N2OCC[C@@H]2c2ccccc2)nc(N)n1 [Example 111, (R)—N4-(2-methoxy-4-(4-(4-methylpiperazin-1-yl)piperidin-1-yl)phenyl)-6-(3-phenylisoxazolidin-2-yl)pyrimidin-2,4-diamine] | 50 to 500 nM |
| C=CCN1CCN(c2ccc(Nc3cc(N4OCC[C@@H]4c4ccccc4)ncn3)cc2)CC1 [Example 68, (R)—N-(4-(4-allylpiperazin-1-yl)phenyl)-6-(3-phenylisoxazolidin-2-yl)pyrimidin-4-amine] | < 50 nM |
| CN1CCN(c2ccc(Nc3cc(N4OCC[C@@H]4Cc4ccccc4)ncn3)cc2)CC1 [Example 3, (S)-6-(3-benzylisoxazolidin-2-yl)-N-(4-(4-methylpiperazin-1-yl)phenyl)pyrimidin-4-amine] | < 50 nM |
| COc1cc(N2CCC(N3CCN(C)CC3)CC2)c(C)cc1Nc1cc(N2OCC[C@@H]2c2cc(F)cc(F)c2)ncn1 [Example 20, (R)-6-(3-(3,5-difluorophenyl)isoxazolidin-2-yl)-N-(2-methoxy-5-methyl-4-(4-(4-methylpiperazin-1-yl)piperidin-1-yl)phenyl)pyrimidin-4-amine] | < 50 nM |
| COc1cc(N2CCC(N3CCN(C)CC3)CC2)ccc1Nc1cc(N2OCC[C@@H]2c2ccc(F)cc2)ncn1 [Example 33, (R)-6-(3-(4-fluorophenyl)isoxazolidin-2-yl)-N-(2-methoxy-4-(4-(4-methylpiperazin-1-yl)piperidin-1-yl)phenyl)pyrimidin-4-amine] | < 50 nM |
| c1ccc([C@H]2CCON2c2cc(Nc3ccc4c(c3)CCNC4)ncn2)cc1 [Example 78, (R)—N-(6-(3-phenylisoxazolidin-2-yl)pyrimidin-4-yl)-1,2,3,4-tetrahydroisoquinolin-6-amine] | < 50 nM |
| COc1cc(N2CCOCC2)ccc1Nc1cc(N2OCC[C@@H]2c2ccccc2)ncn1 [Example 110, (R)—N-(2-methoxy-4-morpholinophenyl)-6-(3-phenylisoxazolidin-2-yl)pyrimidin-4-amine] | < 50 nM |
| Cc1cc(Nc2cc(N3OCC[C@@H]3c3cc(F)ccc3F)ncn2)ccc1N1CCC(N2CCN(C)CC2)CC1 [Example 103, (R)-6-(3-(2,5-difluorophenyl)isoxazolidin-2-yl)-N-(3-methyl-4-(4-(4-methylpiperazin-1-yl)piperidin-1-yl)phenyl)pyrimidin-4-amine] | < 50 nM |
| COc1cc(N2CCC(N3CCN(C4CC4)C(C)(C)C3)CC2)ccc1Nc1cc(N2OCC[C@@H]2c2ccccc2)ncn1 [Example 61, (R)—N-(4-(4-(4-cyclopropyl-3,3-dimethylpiperazin-1-yl)piperidin-1-yl)-2-methoxyphenyl)-6-(3-phenylisoxazolidin-2-yl)pyrimidin-4-amine] | < 50 nM |
| C[C@@H](Oc1cc(N2CCC(N3CCN(C)CC3)CC2)ccc1Nc1cc(N2OCC[C@@H]2c2ccccc2)ncn1)C(F)(F)F [Example 56, N-(4-(4-(4-methylpiperazin-1-yl)piperidin-1-yl)-2-(((R)-1,1,1-trifluoropropan-2-yl)oxy)phenyl)-6-((R)-3-phenylisoxazolidin-2-yl)pyrimidin-4-amine] | < 50 nM |
| CN1CCN(Cc2cc(Nc3cc(N4OCC[C@@H]4c4cc(F)cc(F)c4)ncn3)cc(C(C)(C)C#N)c2)CC1 [Example 14, (R)-2-(3-((6-(3-(3,5-difluorophenyl)isoxazolidin-2-yl)pyrimidin-4-yl)amino)-5-((4-methylpiperazin-1-yl)methyl)phenyl)-2-methylpropanenitrile] | 50 to 500 nM |
| CCN(CC)C1CCN(c2ccc(Nc3cc(N4OCC[C@@H]4c4ccccc4)ncn3)c(OC)c2)CC1 [Example 98, (R)—N-(4-(4-(diethylamino)piperidin-1-yl)-2-methoxyphenyl)-6-(3-phenylisoxazolidin-2-yl)pyrimidin-4-amine] | < 50 nM |
